# Measured values: patent publication US12714747B2, “Cytotoxic lipid particles targeted to tumor-associated myeloid cells (TAMCS) and synergized with radiation therapy for treating glioblastoma” (priority 2019, dated 2026)
# Legend:
# [1] = test system: glioma-associated immune cells (TAMC, microglia, TIL); experiment: Ex vivo TAMC elimination assay; assay type: cell-based, mice; conditions: 0, 25, 50 nM Dina, 72 h
# Experimental: TAMC targeting and elimination in ex vivo mice and human glioma models. Cell suspension collected from mouse or human samples was plated into 96 well U bottom plate. Cells were pre-blocked with Ultra-LEAF purified anti-mouse CD16/32 antibody or Human TruStain FcX (BioLegend) for 10 min at 4° C., followed by incubation with fluorescence labeled LNPs (0.15 mg lipids/ml) for 1 h at 37° C. in 5% CO2 humidified atmosphere. After gently washed with ice-cold PBS thrice, the cells were collected for staining with viability dye and antibodies. The cellular uptake was analyzed by flow cytometry. The ex vivo TAMC elimination assay was performed using cell suspension collected from mouse glioma samples. Cells were plated into 96 well U bottom plate in 50% complete RPMI and 50% conditioned media collected from GL261 glioma cell culture as aforementioned. Cells were subject to the treatment of αPD-L1/LNP/Dina or free Dina at a Dina concentration of 0, 25, and 50 nM for 72 h, and analyzed by flow cytometry.
# PD-L1 = PD-L1 expression on TAMCs after IFNγ stimulation (RT-qPCR, flow cytometry); assay type: cell-based, C57BL/6 mice; conditions: as low as
# Experimental: To detect the PD-L1 expression on TAMCs post treatments, in vitro generated TAMCs (8×10^5 cells/well) were seeded in 24-well plate. After 24 h of culture, cells were subject to different treatments (Dina, αPD-L1/LNP, or αPD-L1-LNP/Dina) at a Dina concentration of 25 nM. Selected groups of cells were exposed to IFNγ (PeproTech) stimulation at 10 ng/ml for 24 h. Cells were collected and washed, followed by qPCR analysis or antibody staining for flow cytometry. The effect of irradiation on PD-L1 expression on TAMCs was similarly assessed 72 h post irradiation.
# TAMCs = experiment: Annexin V viability assay of TAMCs; assay type: cell-based, C57BL/6 mice; conditions: 24 h
# Experimental: In vitro viability, gene expression, and PD-L1 expression of TAMCs post treatments. In vitro generated TAMCs (8×10^5 cells/well) were seeded in 24-well plate. After 24 h of culture, cells were incubated with αPD-L1-LNP/Dina, αPD-L1-LNP, or free Dina. At predetermined time intervals, the cells were collected and washed, followed by the annexin V assay (BioLegend). RNA isolation was processed using the RNEasy Plus Mini Kit (Qiagen), and total RNA was quantified by Nanodrop (Thermo Scientific). cDNA was synthesized using the iScript cDNA synthesis kit (Bio-Rad), and analyzed by qPCR analysis (Bio-Rad). Selected groups of cells were exposed to irradiation and collected 72 h post treatments for cell circle analysis using BrdU Flow Kit (Fisher) following the manufacturer's protocol.
structure (smiles),measurement,setting,value
"CCc1cnn2c(NCc3ccc[n+]([O-])c3)cc(N3CCCC[C@H]3CCO)nc12 [Dina, Dinaciclib]",off-target toxicity to tumor-infiltrating lymphocytes / immune cell populations,[1],severe off-target cytotoxicity
same,dose attenuating PD-L1 expression on TAMCs,PD-L1,25 nM
same,cytotoxicity / viability of TAMCs,TAMCs,comparable cytotoxicity
